Test results published in PubChem BioAssay AID1963831 (Molecular Pharmacology Branch, DTP, NCI, 2024).
Where “and” joins values, the source holds several entries; their conditions need not be identical. Equal entries are not always repeated.

System: 889142-216-R-J1-PDC complex spheroid viability
Assay: Anticancer human tumor 889142-216-R-J1-PDC patient-derived bladder carcinoma cell line growth inhibition [POLQ]
Conditions: for viability, T/C: stronger effect = lower value; for IC50: curve of compound
Description: Multicellular complex tumor spheroid response to Polymerase (POL) inhibitors (novobiocin, ART-558, RP6685) in combination with a variety of drugs and investigational agents in selected tumor cell lines
The POL inhibitors (novobiocin, ART-558, and RP6685) were evaluated both individually and in combination with standard of care and investigational anticancer small molecules within a complex spheroid model of solid tumors. . Complex spheroids include a stromal component modeled by human endothelial cells (HUVEC) and fibroblasts modeled by human mesenchymal stem cells (MSCs). The concentration ranges selected for each drug and investigational agent were based upon clinically achievable concentrations if the clinical Cmax of the agent was known.
Compounds. The drugs and investigational agents: novobiocin (NSC847541), ART-558 (NSC835418), RP-6685 (NSC848927), peposertib (NSC802822), ceralasertib (NSC780249), elimusertib (NSC800525), camonsertib (NSC841442), AZD-1390 (NSC803789), olaparib (NSC753686), talazoparib (NSC767125), rucaparib (NSC756644), sotorasib (NSC818433), MRTX-1133 (NSC836407), SN-38 (NSC673596), topotecan (NSC609699), epotoside (NSC141540), doxorubicin (NSC123127), gemcitabine (NSC613327), 5-fluorouracil (NSC19893), paclitaxel (NSC125973), vemurafenib (NSC761431), MSA-2 (NSC828583), SN-011 (NSC837082), adavosertib (NSC754352), prexasertib (NSC758257), carboplatin (NSC241240) and oxaliplatin (NSC266046), were obtained from the National Cancer Institute (NCI) Developmental Therapeutics Program Chemical Repository (21). The FDA-approved anticancer drug set is available from the Developmental Therapeutics Program at https://dtp.cancer.gov/organization/dscb/obtaining/. […] The stock solutions were prepared in dimethyl sulfoxide (DMSO, Sigma-Aldrich, St. Louis, MO, cat. D2650), except for the platinum compounds which were prepared in saline (Quality Biological, Gaithersburg, MD, cat. 114-055-101), at 800-fold the tested concentration and stored at -70 degrees C prior to their use. All drugs and investigational agents were tested over a range starting from a high concentration at or near the clinical Cmax and decreasing in half-log increments. If the clinical Cmax for an agent had not been determined, the highest concentration tested was 10 microM, except for SN-38, which was tested at a high concentration of 1 microM.
Cell Culture. All cells were maintained in an incubator at 37 degrees C and 5% CO2 with 95% humidity. The PDC lines were cultured according to standard operating procedures established by the NCI PDMR (https://pdmr.cancer.gov). Table 3 of the manuscript, lists the cell lines along with the number of the three cell types plated to form the mct-spheroids and media for tumor cell growth. After thawing, all PDC lines, except 997537-175-T-J1-PDC and 415267-285-R-J2-PDC, were cultured in Matrigel-coated flasks prepared with a working solution of 1X Ham's F-12 nutrient mix, without supplementation (Thermo Fisher Scientific, cat. 11765054), 100 U/mL penicillin-streptomycin (Thermo Fisher Scientific, cat. 15140122), and 2.5% Matrigel (Corning Inc., Corning, NY, cat. 354248) for the first three passages. The two PDC lines 997537-175-T-J1-PDC and 415267-285-R-J2-PDC were cultured on uncoated flasks. The 857933-349-R-J2-PDC line was cultured in 6C/Colon 1B media containing advanced DMEM/F-12 (Thermo Fisher Scientific, cat. 12634028), 10 mM HEPES (Thermo Fisher Scientific, cat. 15630080), 1X GlutaMAX supplement (Thermo Fisher Scientific, cat. 35050061), 0.1 mg/mL primocin (InvivoGen, San Diego, CA, cat. ant-pm-2), 10% defined fetal bovine serum, heat inactivated (HyClone Laboratories Inc., Logan, UT, cat. SH30070.03HI), 50% L-WRN conditioned media (ATCC, cat. CRL-3276), 1.25 mM N-Acetyl-L-cysteine (Sigma-Aldrich, cat. A9165), 10 mM nicotinamide (Sigma-Aldrich, cat. N0636), 1X B-27 supplement (Thermo Fisher Scientific, cat. 17504044), 1X N-2 supplement (Thermo Fisher Scientific, cat. […]
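Further: spheroids exposed to compounds for seven days.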
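Wherever viability, T/C is given: 100% = DMSO vehicle control viability.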

SMILES	viability, T/C (compound 0.0316 µM)	viability, T/C (compound 0.1 µM)	viability, T/C (compound 0.316 µM)	viability, T/C (compound 1 µM)	viability, T/C (compound 3.16 µM)	viability, T/C (compound 10 µM)	IC50	viability, T/C (compound 0.00316 µM)	viability, T/C (compound 0.01 µM)	viability, T/C (compound 0.00949 µM)	viability, T/C (compound 0.03 µM)	viability, T/C (compound 0.0949 µM)	viability, T/C (compound 0.3 µM)	viability, T/C (compound 0.949 µM)	viability, T/C (compound 3 µM)	viability, T/C (compound 0.000316 µM)	viability, T/C (compound 0.001 µM)
C#Cc1c(F)ccc2cc(O)cc(-c3ncc4c(N5CC6CCC(C5)N6)nc(OCC56CCCN5CC(F)C6)nc4c3F)c12 (stereo not given)	97.4% and 84.7% and 98.7%	87.7% and 85.2% and 98.1%	79.3% and 79.1% and 79.6%	67.5% and 74.8% and 66.9%	80.7% and 73.1% and 71.4%	37.6% and 42.5% and 32%	6760 nM and 7470 nM and 4990 nM										
C=CC(=O)N1CCN(c2nc(=O)n(-c3c(C)ccnc3C(C)C)c3nc(-c4c(O)cccc4F)c(F)cc23)C(C)C1 (stereo not given)	85.5% and 87.6% and 108%	90.5% and 106% and 83.7%	123% and 117% and 93.5%	92.1% and 126% and 116%	150% and 108% and 109%	106% and 105% and 97.8%	> 10000 nM										
C=CCn1c(=O)c2cnc(Nc3ccc(N4CCN(C)CC4)cc3)nc2n1-c1cccc(C(C)(C)O)n1	97.2% and 110% and 104%	80.1% and 100% and 88.6%	57.7% and 70.7% and 79.8%	54.2% and 67% and 62.5%			> 1000 nM	97.5% and 109% and 88.1%	87.6% and 92.1% and 104%								
CC(=O)O[C@H]1C(=O)[C@@]2(C)[C@H]([C@H](OC(=O)c3ccccc3)[C@]3(O)C[C@H](OC(=O)[C@H](O)[C@@H](NC(=O)c4ccccc4)c4ccccc4)C(C)=C1C3(C)C)[C@]1(OC(C)=O)CO[C@@H]1C[C@@H]2O										51.9% and 53.3% and 40.6%	51% and 60.1% and 33.6%	54.7% and 51.5% and 37.1%	52.4% and 50.6% and 36.6%	43.7% and 49.6% and 35.6%	49.5% and 56.1% and 39%		
CC(C)n1c(=O)n(C)c2cnc3cc(F)c(-c4ccc(OCCCN5CCCCC5)nc4)cc3c21	78.6% and 82.9% and 98.3%	101% and 92.7% and 85.2%	67.3% and 87% and 77.9%	63.5% and 85.9% and 71.9%	56.2% and 77.5% and 64.2%	17.9% and 67.2% and 43.8%	3190 nM and > 10000 nM and 7640 nM										
CC1COCCN1c1cc(-c2ccnn2C)c2ccnc(-c3ccn[nH]3)c2n1 (stereo not given)	69.8% and 79.1% and 76.9%	54.8% and 52.9% and 67.8%	47% and 40.5% and 47.4%	38.7% and 46.3% and 39.9%	32.2% and 36.3% and 36.2%	28.1% and 25% and 30.5%	206 nM and 182 nM and 308 nM										
CC1COCCN1c1cc(C2(O)CC3CCC(C2)O3)c2cnn(-c3ccn[nH]3)c2n1 (stereo not given)	57.4% and 69.5% and 69.9%	44% and 49.5% and 54.2%	43.3% and 37.3% and 38.3%	32.6% and 33.5% and 34.5%	26% and 30.2% and 30.3%	14.7% and 11.1% and 17.2%	75.7 nM and 135 nM and 153 nM										
CC1COCCN1c1cc(C2(S(C)(=N)=O)CC2)nc(-c2ccnc3[nH]ccc23)n1 (stereo not given)	125% and 90% and 99.5%	92.6% and 98.3% and 102%	98.3% and 75.8% and 74.6%	53.5% and 71.3% and 53.6%	51.8% and 48.8% and 44.5%	45.6% and 58% and 46.8%	3750 nM and > 10000 nM and 1280 nM										
CCCS(=O)(=O)Nc1ccc(F)c(C(=O)c2c[nH]c3ncc(-c4ccc(Cl)cc4)cc23)c1F	74.9% and 85.2% and 120%	89.7% and 99.9% and 114%	84.1% and 105% and 81.2%	96.2% and 106% and 87.5%	62.4% and 72.5% and 71.5%	50% and 43.1% and 36.3%	> 10000 nM and 7630 nM and 6630 nM										
CC[C@@]1(O)C(=O)OCc2c1cc1n(c2=O)Cc2cc3c(CN(C)C)c(O)ccc3nc2-1	60.9% and 63.7%	60.2% and 49.3%					> 100 nM and 94.7 nM	103% and 85.1%	91.3% and 89.6%							110% and 87.5%	96.5% and 89.5%
CCc1c2c(nc3ccc(O)cc13)-c1cc3c(c(=O)n1C2)COC(=O)[C@]3(O)CC	40.2% and 47.8%	33.7% and 31.8%	29.5% and 27.7%	11.7% and 9.45%			10.9 nM and 17.3 nM	58.4% and 64.9%	50.7% and 50.6%								
CCc1cc2c(N3CCc4c(cc(Cn5ccnc5)cc4-c4cn(C)nc4C(F)(F)F)C3=O)cc(C)nc2c(OC)n1	103% and 102% and 111%	116% and 114% and 108%	123% and 119% (2×)	132% and 112% and 96.6%	118% and 106% and 84.9%	84.3% and 82.2% and 71.1%	> 10000 nM										
CCc1cc2c(N3CCc4c(cc(Cn5ccnc5)cc4-c4cn(C)nc4C(F)(F)F)C3=O)ccnc2c(OC)n1	127% and 103% and 138%	115% and 101% and 105%	123% and 106% (2×)	116% and 126% and 105%	116% and 111% and 93.8%	83.1% and 86.1% and 71.5%	> 10000 nM										
